One may read the Kd as the constant that tells how readily two partners part at equilibrium. Lower therefore signals a tighter complex. By inhibition is commonly meant the relative decrease from the control value, in per cent.

Type in all cases: binding
For one assay, the target named is T1, 5FW LecA (PA-IL) (Pseudomonas aeruginosa, UniProt Q05097).
T1 construct: made in house
Description: PrOF NMR with 5-fluorotryptophan-labeled LecA. The conditions noted are these: for LE: ligand efficiency calculated from Kd for LecA, 310 K. On the procedure: PrOF NMR was performed as reported previously. Briefly, 150 µM 5FW LecA was recorded alone and in the presence of DMSO or 2–4 mM compounds in TBS/Ca^2+ buffer. The difference in chemical shift perturbations of W42 in 5FW LecA free vs bound forms was followed to determine Kd values of compounds. The Kd values were calculated according to the one-site-binding model in Origin(Pro) 2020b (OriginLab Corp., USA) from two or three independent titrations. Ligand efficiency values were calculated according to Eq. (1) for a temperature of 310 K.

The target of assay [1] is T2, LecA (Pseudomonas aeruginosa, UniProt Q05097).
T2 construct: made in house
Description: Competitive fluorescence polarization (FP) assay. The note with it: for inhibition at 10000 µM: read-out: Inhibition in FP, compared to MeGal at 10 mM (16 h); for Inhibition in FP: compared to MeGal at 10 mM (16 h). As to the method: The FP assay was performed in a black 384-well plate (Greiner Bio-One, Germany, 781900) with the final volume of 20 µL as described previously. Briefly, 10 µL of a sample solution series (10–0.078 mM) in TBS buffer containing 10 mM Ca^2+ (TBS/Ca^2+-buffer) and 20% DMSO were added in technical triplicates to 10 µL LecA (40 µM) preincubated with a galactose-based Cy5 conjugate[68] (20 nM) in TBS/Ca^2+-buffer. […] The plate was sealed (EASYseal, Greiner Bio-One, 676,001), centrifuged (1 min, 1500 rpm, 25 °C) and incubated in a humidity chamber for 16 h. The fluorescence was measured with an excitation 590 nm and emission 675 nm filter[68] on a PheraStar FS plate reader (BMG Labtech GmbH, Germany). The blank signal of TBS/Ca^2+-buffer containing 10% DMSO was subtracted and the compounds were analyzed with the MARS Data Analysis Software (BMG Labtech GmbH Germany) using the four-parameter variable slope model. The top and bottom plateaus were defined according to the positive controls. The graphs were visualized using Graphpad Prism 5. The percentage (%) of inhibition was calculated at the highest concentration compared with 10 mM MeGal set to 100%.

The next assay deals with T3, 15N LecA (Pseudomonas aeruginosa, UniProt Q05097).
T3 construct: made in house
Description: 1H-15N TROSY NMR with 15N LecA. The conditions noted are these: 4 mM analogs of 1, 1 mM marketed hydroxamates. As to the method:
(§1) The ^1H-^15N TROSY pulse sequence trosyf3gpphsi19 with 128 increments and 32 scans per increment was applied for 0.15 mM ^15N LecA and 0.07 mM LecB in HBS/Ca^2+ buffer (20 mM HEPES pH 7.4, 150 mM NaCl, 10 mM CaCl2, 10% D2O and 100 µM sodium trimethylsilylpropanesulfonate (DSS) as internal reference) at 310 K. The ^1H-^15N HSQC pulse sequence hsqcf3gpph19 with 128 increments and 8 scans per increment was applied for 0.1 mM ^15N DC-SIGN and Langerin CRD in HBS/Ca^2+ buffer at 298 K. For screening of 650 non-fluorinated fragments of the general library against ^15N LecA, a mix of 10 compounds at 1 mM each was combined with 0.15 mM ^15N LecA in HBS/Ca^2+ buffer (20 mM HEPES pH 7.4, 150 mM NaCl, 10 mM CaCl2, 10% D2O and 100 µM sodium trimethylsilylpropanesulfonate (DSS) as internal reference, whereas the fragments with the MBP scaffolds were validated separately at 1 mM. Similarly, 9 nonfluorinated fragments from the MBP library were screened against ^15N-labeled DC-SIGN, LecA and LecB. To validate the fragment binding to proteins, we recorded ^1H-^15N HSQC and TROSY NMR of proteins in the presence of DMSO as negative control and 2 mM fragments in HBS/Ca^2+ buffer. Natural ligands were used as positive controls at 1 mM MeGal, MeFuc and 30 mM D-mannose to LecA/LecB and DC-SIGN CRD/Langerin CRD, respectively. Titration experiments with ^15N-labeled DC-SIGN CRD or LecB were recorded in HBS/Ca^2+ buffer with 30 mM CaCl2 and 0.25 to 4–8 mM malonic acid derivatives. The Kd values were calculated according to the one-site-binding model in Origin(Pro) 2020b (OriginLab Corp., USA). Ligand efficiency calculations were done according to Eq. (1) for a temperature of 298 K and 310 K for DC-SIGN CRD and LecB, respectively.1 LE=RTlnKd/HA, with the temperature T [K], the gas constant R [kcal mol^−1 K^−1], and the number of non-hydrogen atoms HA[56].
(§2) All data were processed with NMRpipe[65] and analyzed with CcpNmr analysis. For data analysis, the protein fingerprint of ^15N DC-SIGN (Table S7) or Langerin CRD was assigned as reported previously. The ^1H-^15N TROSY resonances of ^15N LecA and ^15N LecB were indexed with IDs due to a lack of protein backbone resonance assignment (Tables S8-S9). Next, resonance IDs from protein spectra were transferred to the spectra obtained in the presence of compounds in order to compare the changes in chemical shift perturbations for the fast exchange peaks. The changes in chemical shift perturbations (CSPs) were calculated according to Eq. (2):2 △δ=1/2△δH2+α△δN^2 in which δ is the difference in chemical shift (in ppm) and α is an empirical weighting factor of 0.14 for all amino acid backbone resonances. The threshold value was set based on three independent measurements of reference spectra to 0.01 ppm for LecA, LecB, DC-SIGN CRD and Langerin CRD.

For assay [2], the target named is T2, LecA. Description: Competitive 19F T2-filtered NMR with reporter 5. The conditions noted are these: 0.1 mM 5, 10 mM CaCl2, 3 mM competitor. As to the method:
The analogs of 1 (5) and 58 (61) were used as fluorinated spy molecules in ^19F T2-filtered NMR experiments. Two samples containing 0.1 mM 5 or 61 alone or a 10 µM protein in TBS/EDTA buffer followed by addition of 10 mM CaCl2 and the carbohydrates: 1 mM MeGal (LecA), 1 mM MeFuc (LecB/BambL) and 30 mM D-mannose (DC-SIGN/Langerin). Similarly, 0.1 mM 5 was used to prioritize hydroxamate derivatives, where 3 mM analogs of 1 were added to the samples instead of the carbohydrates. The ^19F and ^19F T2-filtered spectra were recorded with 64 scans, a spectral width of 5 ppm, a transmitter offset at −155.5 ppm (5) and −155.5 ppm (61), the acquisition time of 0.8 s, 2 s relaxation time applying a T2-filter of 384 ms. All spectra were analyzed as described above.

In a further assay the target is T4, DC-SIGN CRD (CD209) (Homo sapiens, UniProt Q9NNX6).
T4 construct: the carbohydrate recognition domain (CRD) of DC-SIGN in ^1H-^15N HSQC/TROSY NMR experiments; made in house
T4 sequence (Q9NNX6 263-378 limits assumed): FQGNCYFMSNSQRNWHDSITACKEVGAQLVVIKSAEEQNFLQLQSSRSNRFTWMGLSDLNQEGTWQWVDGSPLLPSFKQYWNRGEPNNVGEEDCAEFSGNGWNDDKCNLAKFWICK
Description: 1H-15N HSQC NMR with 15N DC-SIGN CRD. As to the method:
as §1, §2

Several values for one entry are separate records, joined by “and”; a condition that tells them apart may be missing. Equal entries are not always repeated. Entries after “also recorded” stand apart in the source; their conditions may differ.

T1 sequence (Q05097 2-122): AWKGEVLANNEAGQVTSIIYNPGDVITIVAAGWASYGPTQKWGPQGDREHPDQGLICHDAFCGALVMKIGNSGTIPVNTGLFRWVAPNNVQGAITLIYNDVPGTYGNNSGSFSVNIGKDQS
T2 sequence (Q05097 whole entry): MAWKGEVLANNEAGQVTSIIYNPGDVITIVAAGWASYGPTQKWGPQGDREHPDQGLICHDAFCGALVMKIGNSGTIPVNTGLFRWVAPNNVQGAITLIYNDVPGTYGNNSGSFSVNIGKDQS
T3 sequence (Q05097 whole entry): as above

With `O=C(CC1CCCCC1)NO` [compound 6], at 5FW LecA (PA-IL), binding was put at a Kd of 4.4 ± 0.6 mM and the LE was 0.30 kcal mol^−1 HA^−1. Further, at LecA [1], the inhibition at 10000 µM amounted to 21 ± 1%. On 15N LecA, the “binding to 15N LecA in TROSY NMR” value is given as “preserved its binding”.

In the case of `O=C(CCCc1ccc(Br)cc1)NO` [compound 38], the inhibition at 10000 µM on LecA [1] is 25 ± 1%.

As for `O=C(CCCc1ccc(O)cc1)NO` [compound 41], on LecA [1], the “Inhibition in FP” value was 39 ± 1% and the inhibition at 10000 µM fell in the range of 27 to 39%.

Turning to `Cc1ccc(CCCC(=O)NO)cc1` [compound 36], at 5FW LecA (PA-IL), the Kd was 3.6 ± 2.2 mM and the LE is given as 0.25 kcal mol^−1 HA^−1. Moreover, at LecA [1], the “Inhibition in FP” value is recorded as 35 ± 3% and the inhibition at 10000 µM fell in the range of 27 to 39%. The “binding to 15N LecA in TROSY NMR” value on 15N LecA is “slightly improved binding”.

As to `O=C(Cc1ccccc1)NO` [compound 2, N-hydroxy-2-phenylacetamide], on 5FW LecA (PA-IL), the equilibrium dissociation constant (Kd) worked out at 6.1 ± 0.9 mM. The “competition of reporter 5 from LecA (recovery of 19F peak)” value at LecA [2] is listed as “recovered”. Further, at LecA [1], the “Inhibition in FP” value was found to be 18 ± 1% and the inhibition at 10000 µM turned out to be 18.3 ± 1%. In addition, at 15N LecA, the “binding to 15N LecA in TROSY NMR” value was “preserved the binding”.

As for `CN(O)C(=O)Cc1ccccc1` [compound 8], the inhibition at 10000 µM at LecA [1] was 20 ± 3%. Further, the “binding to 15N LecA in TROSY NMR” value on 15N LecA is on record as “not tolerated”.

`COc1ccc(CCCC(=O)NO)cc1` [compound 40]: on LecA [1], the “Inhibition in FP” value came out at 27 ± 1% and the inhibition at 10000 µM lay within 27 to 39%.

Take `COc1cccc(C(O)=CC(=O)NO)c1` [compound 31]: at LecA [1], the inhibition at 10000 µM was 9 ± 2%.

With `O=C(COCCCc1ccccc1)NO` [compound 44], at LecA [1], the inhibition at 10000 µM turned out to be 17 ± 2%.

`O=C(O)C(F)(CC1CCC1)C(=O)O` [compound 61] had an equilibrium dissociation constant (Kd) on DC-SIGN CRD (CD209) (15N DC-SIGN CRD, titration, one-site binding model, 30 mM CaCl2) of 1.9 mM. At DC-SIGN CRD (CD209) (ligand efficiency calculated from Kd for DC-SIGN CRD, 298 K), the LE is 0.28 kcal mol^−1 HA^−1. Also, the “binding to 5FW LecA (perturbation of W42) in PrOF NMR” value at 5FW LecA (PA-IL) (2 mM compound) is given as “perturbed W42; also recorded: strongest perturbation of W42”. At 5FW LecA (PA-IL) (19F resonance of 0.15 mM 5FW LecA with 2 mM compound, DMSO 120.50), the “W42 [ppm]” value came out at 120.32 ppm. Moreover, the “W2 [ppm]” value at 5FW LecA (PA-IL) (19F resonance of 0.15 mM 5FW LecA with 2 mM compound, DMSO 121.43) was 121.46 ppm. At 5FW LecA (PA-IL) (19F resonance of 0.15 mM 5FW LecA with 2 mM compound, DMSO 121.67), the “W33 [ppm]” value turned out to be 121.73 ppm. Besides, on 5FW LecA (PA-IL) (19F resonance of 0.15 mM 5FW LecA with 2 mM compound, DMSO 123.50), the “W84 [ppm]” value came to 123.52 ppm.

On to `COc1ccc(CC(=O)NO)cc1` [compound 15], for which, on LecA [1], the “Inhibition in FP” value is 14–16% and 16 ± 4%.

For `CONC(=O)Cc1ccccc1` [compound 7], at LecA [1], the “Inhibition in FP” value was “lost their binding and inhibitory effect; also recorded: No inhibiton”. Moreover, on 15N LecA, the “binding to 15N LecA in TROSY NMR” value is listed as “not tolerated”.

Take `O=C(CCCc1ccc([N+](=O)[O-])cc1)NO` [compound 39]: the “Inhibition in FP” value on LecA [1] was 4 ± 2%.

On to `Cc1ccc(CC(=O)NO)cc1` [compound 9], for which the “Inhibition in FP” value on LecA [1] is 14–16% and 16 ± 2%.

As to `O=C(CC=Cc1ccccc1)NO` [compound 42], the inhibition at 10000 µM at LecA [1] turned out to be 13 ± 3%. In addition, the “binding to 15N LecA in TROSY NMR” value at 15N LecA is on record as “not tolerated”.

On to `Cc1ccccc1CC(=O)NO` [compound 10], for which the “Inhibition in FP” value on LecA [1] was 14–16% and 14 ± 4%.

`O=C(CCCc1ccccc1)NO` [compound 35, N-hydroxy-4-phenylbutanamide]: on 5FW LecA (PA-IL), the Kd was determined as 4.6 ± 0.9 mM and the LE was 0.26 kcal mol^−1 HA^−1. Further, the “competition of reporter 5 from LecA (recovery of 19F peak)” value at LecA [2] is on record as “recovered; also recorded: displaced”. The inhibition at 10000 µM at LecA [1] was determined as 26 ± 1%. On 15N LecA, the “binding to 15N LecA in TROSY NMR” value is on record as “preserved the binding”.

`O=C(Cc1ccc(Br)cc1)NO` [compound 11]: the “Inhibition in FP” value on LecA [1] is 14–16% and 14 ± 1%.

As to `O=C(CCCc1cccs1)NO` [compound 37], the inhibition at 10000 µM at LecA [1] stood at 25 ± 3%.

Regarding `O=C(COCCc1ccccc1)NO` [compound 43], the inhibition at 10000 µM on LecA [1] was 8 ± 3%. At 15N LecA, the “binding to 15N LecA in TROSY NMR” value is “not tolerated”.

The record behind these values is paper PMC9814205, “Targeting undruggable carbohydrate recognition sites through focused fragment library design” (Communications Chemistry, 2022).
